Common to all, as to test: NCI tumour cell line growth inhibition, 48 h
For assay [1], the system named is SNB-19 CNS.
Assay [2] has as its system MDA-MB-231 breast.
Assay [3] relates to CCRF-CEM leukemia.
Assay [4] relates to 786-0 renal.
Assay [5] has as its system SK-MEL-28 melanoma.
Assay [6] has as its system SN12C renal.
For assay [7], the system named is K-562 leukemia.

Several values for one entry are separate records, joined by “and”; a condition that tells them apart may be missing. Equal entries are not always repeated.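 Dose response: 5 concentrations. Exposure: 48 h. Format: 96-well plates. Endpoint: linear interpolation; highest concentration if not reached. GI50: concentration for 50% inhibition of growth. TGI marks complete inhibition of growth.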

The source of these data is PubChem BioAssay (NCI).

Regarding `CC(C)C[C@H](NC(=O)[C@H](Cc1ccccc1)n1ccc(N2CCCCC2)cc1=O)B(O)O`, the GI50 is 0.956 µM in assay [1]; 1.2 µM in assay [2]; 0.429 µM in assay [3]; 0.825 µM in assay [4]; 0.521 µM in assay [5]; 1.5 µM in assay [6]. For the same compound, in assay [7], the GI50 was 1.08 µM. The TGI is over 100 µM in assay [1]; 12.2 µM in assay [2]; over 100 µM in assay [3]; over 100 µM in assay [4]; 29.7 µM in assay [5]; 11.1 µM in assay [6]. In assay [7], this compound gave a TGI of over 100 µM.

For `Cn1ccnc1C(=O)/C=C/c1ccc(CC(=O)Nc2ccc(Cl)cc2)cc1`, the GI50 is 1.77 µM in assay [1]; 5.23 µM in assay [2]; 1.46 µM in assay [3]; 1.6 µM in assay [4]; over 25 µM in assay [5]; 3.04 µM in assay [6]. For the same compound, the TGI in assay [1], in assay [2], in assay [3], in assay [4], in assay [5] and in assay [6] was over 25 µM each time.

Turning to `CN1CCN(Cc2ccc(-c3cc4ncnc(Nc5ccc(OCc6cccc(F)c6)c(Cl)c5)c4s3)o2)CC1`, the GI50 in assay [1] is 4.8 µM; in assay [2], 4.56 µM; in assay [3], 3.81 µM; in assay [4], 4.47 µM; in assay [5], 4.08 µM; in assay [6] it was 3.79 µM. Besides, in assay [7], the GI50 is 2.08 µM. Besides, the TGI in assay [1] was 9.86 µM; in assay [2], 9.01 µM; in assay [3], 9.18 µM; in assay [4] it was 8.95 µM; in assay [5], 7.61 µM; in assay [6], 7.85 µM. Moreover, the TGI in assay [7] amounted to 6.85 µM.

For `O=C1c2ccccc2-c2c1c1ccccc1c(=O)n2CCCNCCCn1c2c(c3ccccc3c1=O)C(=O)c1ccccc1-2`, the GI50 is 6.83 µM in assay [1]; 1.09 µM in assay [2]; 12.6 µM in assay [3]; 8.53 µM in assay [4]; 11 µM in assay [5]; 3.4 µM in assay [6]. Moreover, the GI50 in assay [7] was 4.07 µM. Further, the TGI was over 40.5 µM in assay [1]; 4.25 µM in assay [2]; over 50 µM in assay [3]; 29.8 µM in assay [4]; over 36.9 µM in assay [5]; 14.9 µM in assay [6].

As for `O=C1OC(c2ccco2)=N/C1=C\c1ccc(Cl)c(Cl)c1`, the TGI in assay [1], in assay [2], in assay [3], in assay [4], in assay [5] and in assay [6] was over 100 µM in each case. This compound also yielded a TGI in assay [7] of over 100 µM.

Turning to `Cc1ccc(C)c(NC(=O)C(=O)C(c2cnc3ccc([N+](=O)[O-])cc3n2)[N+](=O)[O-])c1` (stereo unspecified), the TGI in assay [1] was over 100 µM; in assay [3], 79.1 µM; in assay [4] it was over 100 µM; in assay [5], over 100 µM; in assay [6] it was over 100 µM; in assay [7] it was over 100 µM.

Turning to `CN(C)/[N+]([O-])=N/Oc1cc(Nc2cccc(C(=O)O)c2)c([N+](=O)[O-])cc1[N+](=O)[O-]`, the GI50 in assay [1] was 53.6 µM; in assay [2] it was over 100 µM; in assay [4], over 100 µM; in assay [5] it was over 100 µM; in assay [6], over 100 µM; in assay [7], 61.6 µM. Moreover, the TGI in assay [1], in assay [2], in assay [4], in assay [5], in assay [6] and in assay [7] was over 100 µM each time.

As to `COc1ccc(CN2C(=O)/C(=C\c3cc(OC)c(OC)c(OC)c3)c3cc(OC)ccc32)cc1`, the GI50 in assay [1] was 3 µM; in assay [2], 2.89 µM; in assay [3], 3.4 µM; in assay [4], 2.29 µM; in assay [5], 1.72 µM; in assay [6], 3.53 µM. The GI50 in assay [7] was 3.13 µM. Also, the TGI is 10.7 µM in assay [1]; over 100 µM in assay [2]; over 100 µM in assay [3]; 5.07 µM in assay [4]; 3.3 µM in assay [5]; over 39.4 µM in assay [6]. This compound returned a TGI in assay [7] of over 35.5 µM.

Regarding `COc1ccc(C(=O)/C=C/c2ccc(O)c(O)c2F)c(OC)c1`, the GI50 was 10.7 µM in assay [1], 1.88 µM in assay [4], 11.6 µM in assay [5] and 2.42 µM in assay [6]. In addition, the TGI was 19 µM and 26.1 µM in assay [1]; 38.1 µM and 42.1 µM in assay [2]; 6.5 µM in assay [3]; 31.3 µM and 17.1 µM in assay [4]; 33.4 µM and 30.7 µM in assay [5]; 18.6 µM and 11.9 µM in assay [6]. The TGI in assay [7] is 75 µM and 18.1 µM.

Take `CCC1=C(C)/C(=C/c2[nH]c(C)c(C(=O)CCCCC(=O)OC)c2C)N=C1c1ccc[nH]1`: the GI50 in assay [1] is 15.1 µM; in assay [2] it was 4.6 µM; in assay [3], 0.204 µM; in assay [4] it was 15.1 µM; in assay [5], 7.25 µM; in assay [6] it was 22.2 µM. Also, the GI50 in assay [7] was 3.47 µM. Further, the TGI in assay [1] was 38.4 µM; in assay [2] it was 46.4 µM; in assay [3] it was 6.63 µM; in assay [4], 32 µM; in assay [5], 25.8 µM; in assay [6], over 100 µM. Also, the TGI in assay [7] turned out to be 16.7 µM.

As for `CC(C)(C)[OH+][O-].[O-]c1ccc(Cl)cc1C=Nc1ccc(Cl)cc1[O-].[O]=[V]`, the GI50 in assay [1] was 25.1 µM; in assay [2] it was 29.9 µM; in assay [3], 3.93 µM; in assay [4], 3.73 µM; in assay [5], 19.2 µM; in assay [6] it was 24.2 µM. Besides, in assay [7], the GI50 is 31.5 µM. Besides, the TGI in assay [1] was 66.2 µM; in assay [2], over 100 µM; in assay [3], 35.3 µM; in assay [4], 27.1 µM; in assay [5] it was 53.8 µM; in assay [6], over 100 µM. This compound also returned a TGI in assay [7] of over 100 µM.
